Measurements taken from US20250129103A1, “METHODS FOR TREATMENT OF CANCER” (Frontier Medicines Corporation, priority 2022, published 2025).
In brackets after ≈: the same amount, converted by molar mass.

Legend:
[1] = target: KRAS G12C (GMPPNP-loaded) and PI3Ka (Ras-binding domain) interaction (Homo sapiens (Human), UniProt P01116, C118S/C51S/C80L/G12C); test: Inhibition of KRAS G12C and PI3Ka binding (AlphaScreen); conditions: KRAS G12C loaded with GMPPNP, PI3Ka RBD, 2 hours preincubation; read-out: PI3K RBD K-Ras IC50
How it was run: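 Biotin-AviTag Cys-light KRAS G12C (aa 1-169, C51S/C80L/C118S), GMPPNP-loaded, 1.5 nM, preincubated 2 h with compound, then His-tagged PI3Ka RBD (aa 157-300, 100 nM) plus AlphaScreen beads added for 60-90 min, RT. Buffer Hepes pH 7.4, 10 μM GMPPNP, 2% DMSO; 10-point 1:3 from 50 μM; 4-parameter IC50.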

[2] = target: KRAS G12C (GMPPNP-loaded) and cRAF (Ras-binding domain) interaction (Homo sapiens (Human), UniProt P01116, C118S/C51S/C80L/G12C); test: Inhibition of KRAS G12C and cRAF binding (AlphaScreen); conditions: KRAS G12C loaded with GMPPNP, cRaf RBD, 2 hours preincubation; read-out: Raf-1 RBD K-Ras IC50
How it was run: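 GMPPNP-loaded KRAS G12C in 25 mM Hepes pH 7.4, 150 mM NaCl, 5 mM MgCl2, 0.01% Triton X-100, 10 μM GMPPNP, 2% DMSO, preincubated with compound 2 h at room temperature. cRAF RBD plus AlphaScreen beads then added for 60-90 min; signal read at 570 nm.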

[3] = Determination of logD (1-octanol / phosphate buffer pH 7.4); assay type: physicochemical; conditions: 1-octanol/phosphate buffer, pH 7.4, pH 7.4, 1-octanol/phosphate buffer; read-out: Log D, pH 7.4
How it was run: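 Shake-flask partition between 1-octanol and 100 mM phosphate buffer pH 7.4, each phase presaturated with the other overnight. Tubes shaken 1 h at 800 rpm, room temperature, then centrifuged. Both phases quantified by LCMS and logD calculated from the ratio.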

[4] = Determination of kinetic solubility (pH 7.4); assay type: physicochemical; conditions: phosphate buffer, pH 7.4, aqueous buffer, kinetic from dmso stock, 50 mM phosphate buffer pH 7.4, read-out: Ksol, pH 7.4
How it was run: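 Sample mixed with 50 mM phosphate buffer, pH 7.4, vortexed, then shaken 2 h at room temperature and centrifuged. Filtrate analysed by HPLC-UV and LC-MS/MS, with solubility read from peak areas against a standard calibration curve.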

Chain of KRAS G12C (GMPPNP-loaded) and PI3Ka (Ras-binding domain) interaction (P01116 other isoform, or with tags, fused parts or gaps G12C/C51S/C80L/C118S): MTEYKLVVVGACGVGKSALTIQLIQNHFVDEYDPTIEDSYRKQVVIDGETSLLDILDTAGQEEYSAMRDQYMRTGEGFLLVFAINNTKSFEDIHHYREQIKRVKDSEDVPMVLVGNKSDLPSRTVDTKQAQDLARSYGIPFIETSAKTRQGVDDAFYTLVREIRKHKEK
Chain of KRAS G12C (GMPPNP-loaded) and cRAF (Ras-binding domain) interaction (P01116 other isoform, or with tags, fused parts or gaps G12C/C51S/C80L/C118S): as above

SMILES	IC50 [1] [nM]	IC50 [2] [nM]	logD [3]	solubility kinetic at 2 h [4] [µg/mL]
N#CC[C@H]1CN(c2nc(OC[C@@]34CCCN3C[C@H](F)C4)nc3c(F)c(-c4cccc5cccc(Cl)c45)ncc23)CCN1C(=O)/C=C/CN1C[C@H]2COC[C@H]2C1 [Compound 228]	< 10	< 10	3.08	94.8 (≈ 123 µM)
CC(C)c1noc(/C=C/C(=O)N2CCN(c3nc(OCC45CCCN4CCC5)nc4c3CNC(c3cccc5cccc(Cl)c35)C4F)C[C@@H]2CC#N)n1 (stereo partly drawn) [Compound 124]	10 to 100	10 to 100	4.21	0.23 (≈ 0.311 µM)
CN1CC[C@@H]1/C=C/C(=O)N1CCN(c2nc(OC[C@@]34CCCN3C[C@H](F)C4)nc3c(F)c(-c4cccc(Cl)c4C4CC4)ncc23)C[C@@H]1CC#N [Compound 305]	10 to 100	10 to 100	2.87	130 (≈ 186 µM)
N#CC[C@H]1CN(c2nc(OC[C@@]34CCCN3C[C@H](F)C4)nc3c(F)c(-c4cccc5ccc(F)c(F)c45)ncc23)CCN1C(=O)/C=C/CN1[C@@H]2CC[C@H]1COC2 [Compound 93, 2-((S)-1-((E)-4-((1R,5S)-3-oxa-8-azabicyclo[3.2.1]octan-8-yl)but-2-enoyl)-4-(7-(7,8-difluoronaphthalen-1-yl)-8-fluoro-2-(((2R,7aS)-2-fluorotetrahydro-1H-pyrrolizin-7a(5H)-yl)methoxy)pyrido[4,3-d]pyrimidin-4-yl)piperazin-2-yl)acetonitrile]	< 10	< 10	3.07	72.4 (≈ 94 µM)
N#CC[C@H]1CN(c2nc(OC[C@@]34CCCN3C[C@H](F)C4)nc3c2CCN(c2cccc4ccc(F)c(Cl)c24)C3)CCN1C(=O)/C=C/c1nc(C2COC2)no1 [Example 8, 2-((S)-4-(7-(8-chloro-7-fluoronaphthalen-1-yl)-2-(((2R,7aS)-2-fluorohexahydro-1H-pyrrolizin-7a-yl)methoxy)-5,6,7,8-tetrahydropyrido[3,4-d]pyrimidin-4-yl)-1-((E)-3-(3-(oxetan-3-yl)-1,2,4-oxadiazol-5-yl)acryloyl)piperazin-2-yl)acetonitrile]	< 10	< 10	3.78	0.01 (≈ 0.0129 µM)
CCc1noc(/C=C/C(=O)N2CCN(c3nc(OCC45CCCN4CCC5)nc4c(F)c(-c5cccc6cccc(Cl)c56)ncc34)C[C@@H]2CC#N)n1 [Compound 26]	100 to 500	100 to 500	2.66	80.2 (≈ 111 µM)
